Experimental data taken from US12661308B2, “Antimicrobial AZO compounds and uses thereof” (The Regents Of The University Of Colorado, A Body Corporate, priority 2019, dated 2026).
Entries after “also recorded” stand apart in the source; their conditions may differ.

Tests used:
S. mutans = experiment: Detachment study of S. mutans from OH-AAZO coated substrate with and without light (Example 2); assay type: cell-based, Streptococcus mutans; settings: 50 mg/mL coating
Description: In this Example, detachment of S. mutans from a polymeric substrate coated with a 50 mg/mL OH-AAZO solution was evaluated. Four conditions were evaluated. The first is where the polymeric substrate is coated with OH-AAZO and exposed to light to produce a photofluidization effect due to the rapid trans cis isomerization (Azo, light or AL). The second is where the polymeric substrate is coated with OH-AAZO and not exposed to light (Azo, no light or ANL). The third is where the polymeric substrate is not coated with OH-AAZO and is exposed to light (no Azo, light or NAL). The fourth is where the polymeric substrate is not coated with OH-AAZO and is not exposed to light (no Azo, no light or NANL).

[1] = tested on: S. mutans (ATCC 25175) biofilm; experiment: S. mutans biofilm growth study by CFU count on coated and bulk substrates (Example 4); assay type: cell-based, Streptococcus mutans
Description: Coating formulations of OH-AAZO were prepared in THF, all others were prepared in DMF. The THF volume was kept constant (1 mL) and the mass of OH-AAZO monomer was varied to attain the desired concentration. In addition to the OH-AAZO monomer, the coating also consisted of AIBN (2 wt. % relative to the mass of the monomer), and Rhodamine B (0.2 wt. % relative to the mass of the monomer).
Once cured, the MMA:TEGDMA:PMMA base polymers were placed into a mount on a square glass microscope slide. 3 μL of the coating formulation was added via pipette to one side of the substrate and spin coated (1000 rpm for 1 min, 6000 rpm for 3 min), then the process was repeated on the other side. Once both sides were coated, they were placed in an oven for 3 h at 100° C., then under vacuum for an additional 0.5 h.
Bulk OH-AAZO formulations were prepared using the acrylic base polymer method with the addition of the appropriate weight percentage of OH-AAZO (relative to the total mass of the formulation) and AIBN (rather than camphorquinone/amine, 2 wt. %). The components were stirred at room temperature until completely dissolved. The formulations were pipetted into the rubber spacer and cured for 1 h at 100° C. Conversion rates were observed via FT-IR.
Following curing, residual monomer was aqueously extracted by autoclaving (20 psi, 128° C.) for 1 h in MilliQ water (approx. 5 mL water per substrate). The MilliQ water was replaced with fresh water (approx. 5 mL water per substrate) and placed in an 80° C. oven for 2 h. The substrates were blotted dry and analyzed via UV-Vis spectroscopy to confirm the relative amount of the coating (FIG. 9). All coated and bulk substrates were autoclaved prior to their use with both mammalian and bacterial cells.
S. mutans biofilms were grown from a 24 h BHI liquid culture inoculated with an isolated S. mutans colony. The liquid culture was diluted 1:50 in BHI media containing 1 wt. % sucrose in each well in a 96-well plate containing a substrate of interest. The plate was incubated in the dark at 37° C. and 5% CO2 for the necessary amount of time (t=24 h, 48 h, 72 h, depending on the experiment).
Following biofilm growth in the 96-well plate, the substrates were aseptically removed from the 96-well plate and placed in a vial containing 5 mL of 1× PBS solution. The vials were sonicated in a water bath for 10 min at 45° C., and the wells that previously contained the substrates were briefly sonicated using a probe sonicator (3 W RMS output) for 10 s per well. 200 μL aliquots of the sonicated PBS solution were placed in a 96-well plate and diluted 1:10 in each subsequent row. 20 μL aliquots of the sonicated media wells were placed in a 96-well plate containing 180 μL of PBS solution and diluted 1:10 in each subsequent row. Each column was then plated at a volume of 10 μL on a BHI agar plate in triplicate. The plates were then incubated at 37° C. and 5% CO2 for 48 h. The CFUs on each plate were counted in order to quantify the amount of biofilm remaining on the surface of the substrate and the bacteria remaining in the media after the removal of the substrate using the following equations: […]

C=CC(=O)Oc1ccccc1/N=N/c1ccccc1O [OH-AAZO, phenolic acrylated azobenzene]
S. mutans growth (S. mutans; exposed to light (AL), over 48 hr): no growth
S. mutans growth (S. mutans; no light (ANL), first 33 hr): minimal growth
S. mutans growth (S. mutans; no light (ANL), t=48 hr): some minimal biofilm growth
CFUs of S. mutans biofilm on substrate ([1]; 5 mg/mL coating solution, 24 h): approximately 1.0×10^8 CFUs
difference in CFUs between coated and uncoated substrates ([1]; 5 mg/mL coating solution, 24 h): no significant difference
reduction in CFUs of S. mutans biofilm relative to the uncoated control ([1]; 25 mg/mL coating solution, 24 h): 4 log
sterility of the substrate (sonication CFU) ([1]; 50 mg/mL coated substrates, over 72 h): maintained sterility
bacterial growth in the media surrounding the substrate ([1]; 50 mg/mL coated substrates, t=48 h and 72 h): Some media bacterial growth was observed
bacterial growth in the surrounding media ([1]; 50 mg/ml coated substrate, 24 h): absent
CFUs of S. mutans biofilm on substrate surface ([1]; 100 mg/mL coating solution, 24 h): no observable CFUs
bacterial growth in the surrounding media ([1]; 100 mg/ml coated substrate, 24 h): absent
CFUs of S. mutans on surface and in surrounding media ([1]; 1.5 wt. % OH-AAZO bulk bisGMA:TEGDMA substrate, 24 h): no observable CFUs; also recorded: maintained sterility
CFUs of S. mutans on surface and in surrounding media ([1]; 2 wt. % OH-AAZO bulk bisGMA:TEGDMA substrate, 24 h): no observable CFUs; also recorded: maintained sterility
prevention of growth of an S. mutans biofilm ([1]; sucrose-dependent conditions): shown to prevent the growth
